Results on 14 molecules are retold here after ChEMBL document CHEMBL1140736, “High-throughput log P determination by ultraperformance liquid chromatography: a convenient tool for medicinal chemists” (J Med Chem, 2008).

Data set [1] in a line: Partition coefficient, log P by UPLC method. Type of data set: physicochemical. The note with it: octanol/water.
The nature of data set [2]: Partition coefficient, log P of the compound. Type of data set: physicochemical. Conditions: octanol/water.

Broadly, the logP is the decadic logarithm of the partition coefficient of the neutral form, usually between octanol and water. Low readings indicate lower lipophilicity, high ones higher lipophilicity. Consider `C=CCOc1ccccc1OCC(O)CNC(C)C` (stereo not drawn) [OXPRENOLOL], for which the results for the logP in data set [1] and in data set [2] were 2.6 and 2.51, respectively.

For `CCCCN(CCCC)CCCOC(=O)c1ccc(N)cc1` [BUTACAINE], the logP in data set [1] worked out at 4.7; in data set [2] it was 4.26.

For the molecule `CCCNC(C)C(=O)Nc1ccccc1C` (stereo not drawn) [PRILOCAINE], the logP amounted to 2.3 in data set [1] and 2.12 in data set [2].

`CCCCN1CCCCC1C(=O)Nc1c(C)cccc1C` (stereo not drawn) [BUPIVACAINE]: the logP in data set [1] turned out to be 3.8; in data set [2], 3.72.

In turn, `CCCCOc1cc(C(=O)NCCN(CC)CC)c2ccccc2n1` [DIBUCAINE] showed a logP in data set [2] of 4.19.

The molecule `C=CCc1ccccc1OCC(O)CNC(C)C` (stereo not drawn) [ALPRENOLOL] registered a logP in data set [1] of 3.4.

With `CC(=O)Oc1c(C)cc(OCC(O)CNC(C)C)c(C)c1C` (stereo not drawn) [METIPRANOLOL], the logP in data set [1] is 3; in data set [2], 2.81.

For `CC(C)NCC(O)COc1cccc2[nH]c3ccccc3c12` (stereo not drawn) [CARAZOLOL], the logP in data set [1] was 3.4; in data set [2] it was 3.73.

`CCCCNc1ccc(C(=O)OCCN(C)C)cc1` [TETRACAINE] registered a logP in data set [2] of 3.39.

In data set [1], `Cc1cccc(C)c1NC(=O)C1CCCCN1C` (stereo not drawn) [MEPIVACAINE] displayed a logP of 2.2.

With `CC(C)NCC(O)COc1ccc(COCCOC(C)C)cc1` (stereo not drawn) [BISOPROLOL], the values for the logP in data set [1] and in data set [2] were 2.6 and 2.15, respectively.

Turning to `CCN(CC)CCOC(=O)c1ccc(N)cc1` [PROCAINE], the logP turned out to be 2.1 in data set [1] and 2.03 in data set [2].

On to `COCCc1ccc(OCC(O)CNC(C)C)cc1` (stereo not drawn) [METOPROLOL], for which the lipophilicity (logP) in data set [1] stood at 2.2.

In the case of `CC(C)NCC(O)COc1cccc2[nH]ccc12` (stereo not drawn) [PINDOLOL], the values for the logP in data set [1] and in data set [2] were 1.9 and 1.83, respectively.
